Laboratory results published in US20060229348A1, “Oxindole oxazolidinone as antibacterial agent” (priority 2005, published 2006).
In brackets after ≈: the same amount, converted by molar mass.

Columns and labels:
S. pneumoniae SV1 SP-3 = assay: in vitro antibacterial activity, S. pneumoniae SV1 SP-3; assay type: cell-based; details: Streptococcus pneumoniae, SV1SP3; strain SV1 SP-3
Description: (§1) The in vitro antibacterial activity of the compound of the present invention may be assessed by following procedures recommended in (1) National Committee for Clinical Laboratory Standards (January 2003), Methods for dilution antimicrobial tests for bacteria that grow aerobically, Approved Standard (6th ed), M7-A6, NCCLS, Wayne, Pa.; (2) National Committee for Clinical Laboratory Standards (March 2001), Methods for antimicrobial susceptibility testing of anaerobic bacteria, Approved Standard (5th ed), M11-A4, NCCLS, Wayne, Pa.; (3) National Committee for Clinical Laboratory Standards (Jan. 2003), MIC testing supplemental tables, M100-S13 (for use with M7-A6), NCCLS, Wayne, Pa.; and (4) Murray P R, Baron E J, Jorgensen J H, et al. Manual of Clinical Microbiology (8th ed) Washington, D.C.: American Society for Microbiology Press, 2003. The antibacterial activity can be presented in the form of MIC value. The MIC value is the lowest concentration of drug, which prevented macroscopically visible growth under the conditions of the test.

S. aureus UC-76 SA-1 = assay: in vitro antibacterial activity, S. aureus UC-76 SA-1; assay type: cell-based; details: Staphylococcus aureus, UC76; strain UC-76 SA-1
Description: as §1

E. faecalis MGH-2 EF 1-1 = assay: in vitro antibacterial activity, E. faecalis MGH-2 EF 1-1; assay type: cell-based; details: Enterococcus faecalis, MGH2EF11; strain MGH-2 EF 1-1
Description: as §1

MAO-B = molecular target: T1, MAO-B (Homo sapiens, UniProt P27338); assay: monoamine oxidase inhibition, MAO-B; assay type: biochemical; details: substrate at Km 43 μM; MAO-B 0.008 mg/mL
T1 sequence (P27338 1-520): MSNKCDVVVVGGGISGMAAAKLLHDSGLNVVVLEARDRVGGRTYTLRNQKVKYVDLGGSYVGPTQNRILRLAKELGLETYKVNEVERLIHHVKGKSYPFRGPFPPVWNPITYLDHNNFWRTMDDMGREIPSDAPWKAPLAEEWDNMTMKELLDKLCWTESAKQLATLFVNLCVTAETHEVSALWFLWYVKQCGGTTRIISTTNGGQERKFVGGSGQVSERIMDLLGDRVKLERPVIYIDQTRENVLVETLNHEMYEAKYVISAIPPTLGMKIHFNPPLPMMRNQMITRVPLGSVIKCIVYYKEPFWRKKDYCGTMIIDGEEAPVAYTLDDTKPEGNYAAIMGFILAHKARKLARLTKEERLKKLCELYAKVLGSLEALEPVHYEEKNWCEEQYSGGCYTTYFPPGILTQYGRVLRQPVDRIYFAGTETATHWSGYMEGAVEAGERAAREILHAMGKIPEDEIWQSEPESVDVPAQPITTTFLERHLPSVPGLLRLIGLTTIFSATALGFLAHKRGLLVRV
Description: (§2) MAO-A and B inhibition were analyzed by measuring the inhibition of conversion of an MAO substrate, 1-methyl-4-(1-methyl-2-pyrryl)-1,2,3,6-tetrahydropyridine, to its dihydropyridinium metabolite (λ=421 nm). The substrate concentration was equal to the Km (64 μM for MAO-A and 43 μM for MAO-B). The MAO-A concentration was 0.01 mg/mL, and the MAO-B concentration was 0.008 mg/mL. Each inhibitor was tested at seven concentrations. Percent inhibition at each concentration was established relative to the uninhibited control rate, and the IC50 and Ki values were calculated.

E. faecalis (VREF) = assay: in vitro antibacterial activity (MIC), E. faecalis (VREF); assay type: cell-based; details: Enterococcus faecalis
Description: as §1

E. faecium (VREF) = assay: in vitro antibacterial activity (MIC), E. faecium (VREF); assay type: cell-based; details: Enterococcus faecium
Description: as §1

S. aureus (LORSA) = assay: in vitro antibacterial activity (MIC), S. aureus (LORSA); assay type: cell-based; details: Staphylococcus aureus
Description: as §1

S. pneumoniae (LRSA) = assay: in vitro antibacterial activity (MIC), S. pneumoniae (LRSA); assay type: cell-based; details: Streptococcus pneumoniae
Description: as §1

MAO-A = molecular target: T2, MAO-A (Homo sapiens, UniProt P21397); assay: monoamine oxidase inhibition, MAO-A; assay type: biochemical; details: substrate at Km 64 μM; MAO-A 0.01 mg/mL
T2 sequence (P21397 1-527): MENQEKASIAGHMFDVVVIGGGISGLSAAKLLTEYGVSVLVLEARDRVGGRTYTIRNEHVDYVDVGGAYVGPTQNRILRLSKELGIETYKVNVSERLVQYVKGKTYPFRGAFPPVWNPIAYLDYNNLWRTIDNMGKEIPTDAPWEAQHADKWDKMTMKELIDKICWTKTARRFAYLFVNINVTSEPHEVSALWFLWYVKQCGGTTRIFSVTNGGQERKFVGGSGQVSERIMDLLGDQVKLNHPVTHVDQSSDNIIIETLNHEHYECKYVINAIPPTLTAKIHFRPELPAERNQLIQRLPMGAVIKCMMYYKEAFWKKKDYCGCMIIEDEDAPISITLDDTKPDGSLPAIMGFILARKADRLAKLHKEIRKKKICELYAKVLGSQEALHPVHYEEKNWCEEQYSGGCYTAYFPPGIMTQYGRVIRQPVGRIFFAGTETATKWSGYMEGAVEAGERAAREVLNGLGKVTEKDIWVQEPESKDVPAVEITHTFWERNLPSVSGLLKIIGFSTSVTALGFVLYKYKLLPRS
Description: as §2

Compound | MIC90 (S. pneumoniae SV1 SP-3) | MIC90 (S. aureus UC-76 SA-1) | MIC90 (E. faecalis MGH-2 EF 1-1) | Ki (MAO-B) | MIC90 (E. faecalis (VREF)) | MIC90 (E. faecium (VREF)) | MIC90 (S. aureus (LORSA)) | MIC90 (S. pneumoniae (LRSA)) | Ki (MAO-A)
COC(=O)NC[C@H]1CN(c2ccc3c(c2)CC(=O)N3CC2CC2)C(=O)O1 [Example 7, (S)-[3-(1-cyclopropylmethyl-2-oxo-2,3-dihydro-1H-indol-5-yl)-2-oxo-oxazolidin-5-ylmethyl]-carbamic acid methyl ester] | 4 µg/mL (≈ 11.1 µM) | 8 µg/mL (≈ 22.3 µM) | 8 µg/mL (≈ 22.3 µM) | – | – | – | – | – | –
COC(=O)NC[C@H]1CN(c2ccc3c(c2)CC(=O)N3C2CC2)C(=O)O1 [Example 6, (S)-[3-(1-cyclopropyl-2-oxo-2,3-dihydro-1H-indol-5-yl)-2-oxo-oxazolidin-5-ylmethyl]-carbamic acid methyl ester] | 4 µg/mL (≈ 11.6 µM) | 4 µg/mL (≈ 11.6 µM) | 4 µg/mL (≈ 11.6 µM) | – | – | – | – | – | –
CCN1C(=O)Cc2cc(N3C[C@H](CNC(=O)OC)OC3=O)ccc21 [Compound No. 1, (5S)-[3-(1-ethyl-2-oxo-2,3-dihydro-1H-indol-5-yl)-2-oxo-oxazolidin-5-ylmethyl]-carbamic acid methyl ester] | – | – | – | 57.4 µM | 4 µg/mL (≈ 12 µM) | 4 µg/mL (≈ 12 µM) | 4 µg/mL (≈ 12 µM) | 2 µg/mL (≈ 6 µM) | 880 µM
COC(=O)NC[C@H]1CN(c2ccc3c(c2)CC(=O)N3C)C(=O)O1 [Example 2, (S)-[3-(1-methyl-2-oxo-2,3-dihydro-1H-indol-5-yl)-2-oxo-oxazolidin-5-ylmethyl]-carbamic acid methyl ester] | 1 µg/mL (≈ 3.13 µM) | 4 µg/mL (≈ 12.5 µM) | 2 µg/mL (≈ 6.26 µM) | – | – | – | – | – | –
COC(=O)NC[C@H]1CN(c2ccc3c(c2)CC(=O)N3C(C)C)C(=O)O1 [Example 4, (S)-[3-(1-isopropyl-2-oxo-2,3-dihydro-1H-indol-5-yl)-2-oxo-oxazolidin-5-ylmethyl]-carbamic acid methyl ester] | 4 µg/mL (≈ 11.5 µM) | 8 µg/mL (≈ 23 µM) | 8 µg/mL (≈ 23 µM) | – | – | – | – | – | –
CCCN1C(=O)Cc2cc(N3C[C@H](CNC(=O)OC)OC3=O)ccc21 [Example 5, (S)-[2-oxo-3-(2-oxo-1-propyl-2,3-dihydro-1H-indol-5-yl)-oxazolidin-5-ylmethyl]-carbamic acid methyl ester] | 4 µg/mL (≈ 11.5 µM) | 8 µg/mL (≈ 23 µM) | 4 µg/mL (≈ 11.5 µM) | – | – | – | – | – | –
COC(=O)NC[C@H]1CN(c2ccc3c(c2)CC(=O)N3C(C)CF)C(=O)O1 (stereo partly drawn) [Example 8, (S)-{3-[1-(2-fluoro-1-methyl-ethyl)-2-oxo-2,3-dihydro-1H-indol-5-yl]-2-oxo-oxazolidin-5-ylmethyl}-carbamic acid methyl ester] | 4 µg/mL (≈ 10.9 µM) | 4 µg/mL (≈ 10.9 µM) | 4 µg/mL (≈ 10.9 µM) | – | – | – | – | – | –
COC(=O)NC[C@H]1CN(c2ccc3c(c2)CC(=O)N3CCF)C(=O)O1 [Example 3, (S)-{3-[1-(2-fluoro-ethyl)-2-oxo-2,3-dihydro-1H-indol-5-yl]-2-oxo-oxazolidin-5-ylmethyl}-carbamic acid methyl ester] | 2 µg/mL (≈ 5.69 µM) | 4 µg/mL (≈ 11.4 µM) | 2 µg/mL (≈ 5.69 µM) | – | – | – | – | – | –
